Source: US20260285850A1, “SUBSTITUTED OXAZOLIDINONES AND IMIDAZOLINONES AS HERBICIDES” (FMC CORPORATION, priority 2023, published 2026)

Key:
Type in all cases: in vivo
[1] = test system: green foxtail (Setaria viridis); assay: Test A postemergence application, visual injury rating 0-100; conditions: 10 days; for Foxtail, Green plant response rating (0-100): 31 g ai/ha, postemergence, 0 = no effect, 100 = complete control; for Foxtail, Green plant response rating (0 to 100 scale): Postemergence, 125 g ai/ha, 0 is no effect, 100 is complete control
From the text: (§1) Seeds of plant species selected from barnyardgrass (Echinochloa crus-galli), blackgrass (Alopecurus myosuroides), corn (Zea mays), foxtail, giant (giant foxtail, Setaria faberi), green foxtail (Setaria viridis), goosegrass (Eleusine indica), kochia (Bassia scoparia), oat, wild (wild oat, Avena fatua), palmer (palmer amaranth, palmer pigweed, Amaranthus palmeri), ragweed (common ragweed, Ambrosia artemisiifolia), ryegrass, Italian (italian ryegrass, Lolium multiflorum), soybean (Glycine max) and wheat (Triticum aestivum) were planted into a blend of loam soil and sand and treated preemergence with a directed soil spray using test chemicals formulated in a non-phytotoxic solvent mixture which included a surfactant.
(§2) At the same time, plants selected from these crops and weed species and also galium (catchweed bedstraw, Galium aparine) and horseweed (Erigeron canadensis) were planted in pots containing the same blend of loam soil and sand and treated with postemergence applications of test chemicals formulated in the same manner. Plants ranged in height from 2 to 10 cm and were in the one- to two-leaf stage for the postemergence treatment. Treated plants and untreated controls were maintained in a greenhouse for 10 days, after which time all treated plants were compared to untreated controls and visually evaluated for injury. Plant response ratings, summarized in Table A, are based on a 0 to 100 scale where 0 is no effect and 100 is complete control. A dash (-) response means no test result.

[2] = test system: wheat (Triticum aestivum); assay: as above; conditions: 10 days; for Wheat plant response rating (0-100): 31 g ai/ha, postemergence, 0 = no effect, 100 = complete control; for Wheat plant response rating (0 to 100 scale): Postemergence, 125 g ai/ha, 0 is no effect, 100 is complete control
From the text: as §1, §2

[3] = test system: palmer (palmer amaranth, palmer pigweed, Amaranthus palmeri); assay: as above; conditions: 10 days; for Amaranth, Palmer plant response rating (0-100): 31 g ai/ha, postemergence, 0 = no effect, 100 = complete control; for Amaranth, Palmer / Pigweed, Palmer plant response rating (0 to 100 scale): Postemergence, 125 g ai/ha, 0 is no effect, 100 is complete control
From the text: as §1, §2

[4] = test system: ryegrass, Italian (italian ryegrass, Lolium multiflorum); assay: as above; conditions: 10 days; for Ryegrass, Italian plant response rating (0-100): 31 g ai/ha, postemergence, 0 = no effect, 100 = complete control; for Ryegrass, Italian plant response rating (0 to 100 scale): Postemergence, 125 g ai/ha, 0 is no effect, 100 is complete control
From the text: as §1, §2

kochia (Bassia scoparia) [5] = assay: as above; conditions: 10 days; for Kochia plant response rating (0-100): 31 g ai/ha, postemergence, 0 = no effect, 100 = complete control; for Kochia plant response rating (0 to 100 scale): Postemergence, 125 g ai/ha, 0 is no effect, 100 is complete control
From the text: as §1, §2

soybean (Glycine max) [6] = assay: as above; conditions: 10 days; for Soybean plant response rating (0-100): 31 g ai/ha, postemergence, 0 = no effect, 100 = complete control; for Soybean plant response rating (0 to 100 scale): Postemergence, 125 g ai/ha, 0 is no effect, 100 is complete control
From the text: as §1, §2

[7] = test system: oat, wild (wild oat, Avena fatua); assay: as above; conditions: 10 days; for Oat, Wild plant response rating (0-100): 31 g ai/ha, postemergence, 0 = no effect, 100 = complete control; for Oat, Wild plant response rating (0 to 100 scale): Postemergence, 125 g ai/ha, 0 is no effect, 100 is complete control
From the text: as §1, §2

corn (Zea mays) [8] = assay: as above; conditions: 10 days; for Corn plant response rating (0-100): 31 g ai/ha, postemergence, 0 = no effect, 100 = complete control; for Corn plant response rating (0 to 100 scale): Postemergence, 125 g ai/ha, 0 is no effect, 100 is complete control
From the text: as §1, §2

[9] = test system: barnyardgrass (Echinochloa crus-galli); assay: as above; conditions: 10 days; for Barnyardgrass plant response rating (0-100): 31 g ai/ha, postemergence, 0 = no effect, 100 = complete control; for Barnyardgrass plant response rating (0 to 100 scale): Postemergence, 125 g ai/ha, 0 is no effect, 100 is complete control
From the text: as §1, §2

[10] = test system: blackgrass (Alopecurus myosuroides); assay: as above; conditions: 10 days; for Blackgrass plant response rating (0-100): 31 g ai/ha, postemergence, 0 = no effect, 100 = complete control; for Blackgrass plant response rating (0 to 100 scale): Postemergence, 125 g ai/ha, 0 is no effect, 100 is complete control
From the text: as §1, §2

[11] = test system: ragweed (common ragweed, Ambrosia artemisiifolia); assay: as above; conditions: 10 days; for Ragweed plant response rating (0-100): 31 g ai/ha, postemergence, 0 = no effect, 100 = complete control; for Ragweed plant response rating (0 to 100 scale): Postemergence, 125 g ai/ha, 0 is no effect, 100 is complete control
From the text: as §1, §2

[12] = test system: horseweed (Erigeron canadensis); assay: as above; conditions: 10 days; for Horseweed plant response rating (0-100): 31 g ai/ha, postemergence, 0 = no effect, 100 = complete control; for Horseweed plant response rating (0 to 100 scale): Postemergence, 125 g ai/ha, 0 is no effect, 100 is complete control
From the text: as §1, §2

[13] = test system: green foxtail (Setaria viridis); assay: Test A preemergence soil spray, visual injury rating 0-100; conditions: 10 days, 0 = no effect, 100 = complete control; for Foxtail, Green plant response rating (0-100): 31 g ai/ha; for Foxtail, Green plant response rating (0 to 100 scale): 125 g ai/ha
From the text: as §1, §2

[14] = test system: wheat (Triticum aestivum); assay: as above; conditions: 10 days, 0 = no effect, 100 = complete control; for Wheat plant response rating (0-100): 31 g ai/ha; for Wheat plant response rating (0 to 100 scale): 125 g ai/ha
From the text: as §1, §2

[15] = test system: palmer (palmer amaranth, palmer pigweed, Amaranthus palmeri); assay: as above; conditions: 10 days, 0 = no effect, 100 = complete control; for Amaranth, Palmer plant response rating (0-100): 31 g ai/ha; for Amaranth, Palmer plant response rating (0 to 100 scale): 125 g ai/ha
From the text: as §1, §2

[16] = test system: ryegrass, Italian (italian ryegrass, Lolium multiflorum); assay: as above; conditions: 10 days, 0 = no effect, 100 = complete control; for Ryegrass, Italian plant response rating (0-100): 31 g ai/ha; for Ryegrass, Italian plant response rating (0 to 100 scale): 125 g ai/ha
From the text: as §1, §2

kochia (Bassia scoparia) [17] = assay: as above; conditions: 10 days, 0 = no effect, 100 = complete control; for Kochia plant response rating (0-100): 31 g ai/ha; for Kochia plant response rating (0 to 100 scale): 125 g ai/ha
From the text: as §1, §2

soybean (Glycine max) [18] = assay: as above; conditions: 10 days, 0 = no effect, 100 = complete control; for Soybean plant response rating (0-100): 31 g ai/ha; for Soybean plant response rating (0 to 100 scale): 125 g ai/ha
From the text: as §1, §2

[19] = test system: oat, wild (wild oat, Avena fatua); assay: as above; conditions: 10 days, 0 = no effect, 100 = complete control; for Oat, Wild plant response rating (0-100): 31 g ai/ha; for Oat, Wild plant response rating (0 to 100 scale): 125 g ai/ha
From the text: as §1, §2

corn (Zea mays) [20] = assay: as above; conditions: 10 days, 0 = no effect, 100 = complete control; for Corn plant response rating (0-100): 31 g ai/ha; for Corn plant response rating (0 to 100 scale): 125 g ai/ha
From the text: as §1, §2

[21] = test system: barnyardgrass (Echinochloa crus-galli); assay: as above; conditions: 10 days, 0 = no effect, 100 = complete control; for Barnyardgrass plant response rating (0-100): 31 g ai/ha; for Barnyardgrass plant response rating (0 to 100 scale): 125 g ai/ha
From the text: as §1, §2

[22] = test system: blackgrass (Alopecurus myosuroides); assay: as above; conditions: 10 days, 0 = no effect, 100 = complete control; for Blackgrass plant response rating (0-100): 31 g ai/ha; for Blackgrass plant response rating (0 to 100 scale): 125 g ai/ha
From the text: as §1, §2

[23] = test system: ragweed (common ragweed, Ambrosia artemisiifolia); assay: as above; conditions: 10 days, 0 = no effect, 100 = complete control; for Ragweed plant response rating (0-100): 31 g ai/ha; for Ragweed plant response rating (0 to 100 scale): 125 g ai/ha
From the text: as §1, §2

## CONC(=O)C1CC(NC(=O)C2(C)CN(c3cc(F)cc(F)c3)C(=O)O2)CO1 (centres unmarked) [Compound 40]
[1]
  Foxtail, Green plant response rating (0-100): 0
  Foxtail, Green plant response rating (0 to 100 scale): 90
[2]
  Wheat plant response rating (0-100): 70
  Wheat plant response rating (0 to 100 scale): 80
[3]
  Amaranth, Palmer plant response rating (0-100): 0
  Amaranth, Palmer / Pigweed, Palmer plant response rating (0 to 100 scale): 30
[4]
  Ryegrass, Italian plant response rating (0-100): 20
  Ryegrass, Italian plant response rating (0 to 100 scale): 60
Kochia (Bassia scoparia) [5]
  Kochia plant response rating (0-100): 0
  Kochia plant response rating (0 to 100 scale): 70
Soybean (Glycine max) [6]
  Soybean plant response rating (0-100): 0
  Soybean plant response rating (0 to 100 scale): 60
[7]
  Oat, Wild plant response rating (0-100): 90
  Oat, Wild plant response rating (0 to 100 scale): 90
Corn (Zea mays) [8]
  Corn plant response rating (0-100): 20
  Corn plant response rating (0 to 100 scale): 100
[9]
  Barnyardgrass plant response rating (0-100): 10
  Barnyardgrass plant response rating (0 to 100 scale): 100
[10]
  Blackgrass plant response rating (0-100): 100
  Blackgrass plant response rating (0 to 100 scale): 100
[11]
  Ragweed plant response rating (0-100): 0
  Ragweed plant response rating (0 to 100 scale): 20
[12]
  Horseweed plant response rating (0-100): 30
  Horseweed plant response rating (0 to 100 scale): 0
[13]
  Foxtail, Green plant response rating (0-100): 0
  Foxtail, Green plant response rating (0 to 100 scale): 20
[14]
  Wheat plant response rating (0-100): 50
  Wheat plant response rating (0 to 100 scale): 90
[15]
  Amaranth, Palmer plant response rating (0-100): 0
  Amaranth, Palmer plant response rating (0 to 100 scale): 0
[16]
  Ryegrass, Italian plant response rating (0-100): 20
  Ryegrass, Italian plant response rating (0 to 100 scale): 90
Kochia (Bassia scoparia) [17]
  Kochia plant response rating (0-100): 0
  Kochia plant response rating (0 to 100 scale): 0
Soybean (Glycine max) [18]
  Soybean plant response rating (0-100): 0
  Soybean plant response rating (0 to 100 scale): 10
[19]
  Oat, Wild plant response rating (0-100): 50
  Oat, Wild plant response rating (0 to 100 scale): 90
Corn (Zea mays) [20]
  Corn plant response rating (0-100): 0
  Corn plant response rating (0 to 100 scale): 0
[21]
  Barnyardgrass plant response rating (0-100): 0
  Barnyardgrass plant response rating (0 to 100 scale): 30
[22]
  Blackgrass plant response rating (0-100): 50
  Blackgrass plant response rating (0 to 100 scale): 80
[23]
  Ragweed plant response rating (0-100): 0
  Ragweed plant response rating (0 to 100 scale): 0

## CONC(=O)C1CC(NC(=O)C2(C)CN(c3cc(F)cc(F)c3)C(=O)O2)CO1 (centres unmarked) [Compound 41]
[1]
  Foxtail, Green plant response rating (0-100): 20
  Foxtail, Green plant response rating (0 to 100 scale): 30
[2]
  Wheat plant response rating (0-100): 20
  Wheat plant response rating (0 to 100 scale): 80
[3]
  Amaranth, Palmer plant response rating (0-100): 0
  Amaranth, Palmer / Pigweed, Palmer plant response rating (0 to 100 scale): 0
[4]
  Ryegrass, Italian plant response rating (0-100): 0
  Ryegrass, Italian plant response rating (0 to 100 scale): 50
Kochia (Bassia scoparia) [5]
  Kochia plant response rating (0-100): 0
  Kochia plant response rating (0 to 100 scale): 0
Soybean (Glycine max) [6]
  Soybean plant response rating (0-100): 0
  Soybean plant response rating (0 to 100 scale): 0
[7]
  Oat, Wild plant response rating (0-100): 10
  Oat, Wild plant response rating (0 to 100 scale): 40
Corn (Zea mays) [8]
  Corn plant response rating (0-100): 0
  Corn plant response rating (0 to 100 scale): 0
[9]
  Barnyardgrass plant response rating (0-100): 0
  Barnyardgrass plant response rating (0 to 100 scale): 30
[10]
  Blackgrass plant response rating (0-100): 0
  Blackgrass plant response rating (0 to 100 scale): 90
[11]
  Ragweed plant response rating (0-100): 0
  Ragweed plant response rating (0 to 100 scale): 0
[12]
  Horseweed plant response rating (0-100): 0
  Horseweed plant response rating (0 to 100 scale): 0
[13]
  Foxtail, Green plant response rating (0-100): 0
  Foxtail, Green plant response rating (0 to 100 scale): 0
[14]
  Wheat plant response rating (0-100): 0
  Wheat plant response rating (0 to 100 scale): 0
[15]
  Amaranth, Palmer plant response rating (0-100): 0
  Amaranth, Palmer plant response rating (0 to 100 scale): 0
[16]
  Ryegrass, Italian plant response rating (0-100): 0
  Ryegrass, Italian plant response rating (0 to 100 scale): 0
Kochia (Bassia scoparia) [17]
  Kochia plant response rating (0-100): 0
  Kochia plant response rating (0 to 100 scale): 0
Soybean (Glycine max) [18]
  Soybean plant response rating (0-100): 0
  Soybean plant response rating (0 to 100 scale): 0
[19]
  Oat, Wild plant response rating (0-100): 0
  Oat, Wild plant response rating (0 to 100 scale): 0
Corn (Zea mays) [20]
  Corn plant response rating (0-100): 0
  Corn plant response rating (0 to 100 scale): 0
[21]
  Barnyardgrass plant response rating (0-100): 0
  Barnyardgrass plant response rating (0 to 100 scale): 0
[22]
  Blackgrass plant response rating (0-100): 0
  Blackgrass plant response rating (0 to 100 scale): 0
[23]
  Ragweed plant response rating (0-100): 0
  Ragweed plant response rating (0 to 100 scale): 0
